The values below come from the supplement of paper PMC8967900.

Test systems include COG-LL-355h; MHH-CALL-3; KASUMI-10; HAL-01; COG-LL-319h; TMD5; MHH-CALL-2; COG-LL-402h; MOLT-4; CCRF-CEM; SUP-B15; 697; TANOUE; 380; CCRF-HSB2; COG-LL-317; NALM-16; KOPN-8; RCH-ACV; SEM cells.
Test in all cases: selective drug sensitivity score (sDSS, relative to normal bone marrow) (sDSS (score)); higher = more potent and effective on the cell line relative to normal bone marrow cells
Conditions in all cases: 72 h

The structures appear in SMILES notation.
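Also: ALL cell lines in 384-well plates, five doses spanning 10,000-fold, each plate scaled between vehicle and 100 µmol/L benzalkonium chloride controls, sDSS an adapted area-under-curve metric.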

For `Nc1nc(Cl)nc2c1ncn2[C@H]1C[C@H](O)[C@@H](CO)O1` [Cladribine] (top concentration 1000 nM), the “selective drug sensitivity score” value with COG-LL-355h is 0.16; with MHH-CALL-3 it was 11.7; with KASUMI-10, 5.26; with HAL-01, -0.14; in the assay on COG-LL-319h, 7.76; with TMD5, -16. The “selective drug sensitivity score” value in the assay with MHH-CALL-2 was 4.66; in the assay with COG-LL-402h it was 3.66; with MOLT-4 it was -7.74; in the assay with CCRF-CEM, 5.16; with SUP-B15 it was 9.36; in the assay with 697, 10.5. Further, the “selective drug sensitivity score” value in the assay on TANOUE is -16; with 380 it was 7.56; in the assay on CCRF-HSB2, -0.04; in the assay on COG-LL-317, 1.06; in the assay with NALM-16 it was -8.24; in the assay on KOPN-8, 9.66. The “selective drug sensitivity score” value in the assay on RCH-ACV turned out to be 5.76; with SEM cells it was 3.96.
Regarding `Cc1sc2c(c1C)C(c1ccc(Cl)cc1)=N[C@@H](CC(=O)Nc1ccc(OCCOCCOCCOCCNc3cccc4c3C(=O)N(C3CCC(=O)NC3=O)C4=O)cc1)c1nnc(C)n1-2` (stereo not given in full) [ARV-825] (top concentration 300 nM), the “selective drug sensitivity score” value in the assay on COG-LL-355h was 10.2; with MHH-CALL-3, 7.44; in the assay with KASUMI-10, 3.84; with HAL-01, -12.1; in the assay with COG-LL-319h it was 4.04; in the assay on TMD5, 0.14. The “selective drug sensitivity score” value was 4.94 in the assay with MHH-CALL-2; 3.74 with COG-LL-402h; -10.4 in the assay with MOLT-4; -2.66 with CCRF-CEM; 6.14 in the assay on SUP-B15; 3.14 in the assay with 697. Further, the “selective drug sensitivity score” value was -17.1 with TANOUE; 2.04 with 380; 1.14 in the assay on CCRF-HSB2; -0.26 in the assay with COG-LL-317; 0.74 in the assay on NALM-16; 4.14 in the assay on KOPN-8. Besides, the “selective drug sensitivity score” value with RCH-ACV worked out at 4.44; with SEM cells it was 2.24.
Consider `CC1=C(/C=C/C(C)=C/C=C/C(C)=C/C(=O)O)C(C)(C)CCC1` [Tretinoin] (top concentration 10000 nM), for which the “selective drug sensitivity score” value is -1 in the assay on COG-LL-355h; -1.2 in the assay with MHH-CALL-3; -1.8 in the assay with KASUMI-10; 1.2 in the assay on HAL-01; -2.4 with COG-LL-319h; -2.4 in the assay on TMD5. The “selective drug sensitivity score” value was -1.7 with MHH-CALL-2; -2.4 in the assay on COG-LL-402h; -2.4 in the assay with MOLT-4; -2.3 in the assay on CCRF-CEM; -2.4 in the assay on SUP-B15; -1.1 with 697. Also, the “selective drug sensitivity score” value in the assay with TANOUE is -2.4; in the assay on 380, 1.7; in the assay on CCRF-HSB2, -2.4; in the assay on COG-LL-317, -1.8; in the assay with NALM-16, -2.4; with KOPN-8 it was 0.4. The “selective drug sensitivity score” value in the assay with RCH-ACV was -2.4; in the assay with SEM cells it was 0.
As for `COc1cc(OC)cc(N(CCNC(C)C)c2ccc3ncc(-c4cnn(C)c4)nc3c2)c1` [Erdafitinib] (top concentration 1000 nM), the “selective drug sensitivity score” value with COG-LL-355h is -0.56; in the assay with MHH-CALL-3, 0.64; with KASUMI-10, -0.06; with HAL-01 it was 6.94; in the assay on COG-LL-319h, 0.44; in the assay on TMD5, 4.74. Moreover, the “selective drug sensitivity score” value with MHH-CALL-2 was 8.24; in the assay on COG-LL-402h, 0.04; in the assay on MOLT-4, -0.56; in the assay on CCRF-CEM, -0.56; in the assay on SUP-B15, -0.46; in the assay on 697, -0.06. Moreover, the “selective drug sensitivity score” value with TANOUE was -0.56; in the assay with 380, -0.56; in the assay with CCRF-HSB2, 3.04; with COG-LL-317 it was -0.56; with NALM-16, -0.56; with KOPN-8 it was -0.56. In addition, the “selective drug sensitivity score” value in the assay with RCH-ACV amounted to 2.04; in the assay with SEM cells it was 0.24.
On to `O=C(O)c1ccc(O)c2ncccc12` [IOX-1] (top concentration 100000 nM), for which the “selective drug sensitivity score” value was found to be 3.24 in the assay with COG-LL-355h; 0.24 in the assay on MHH-CALL-3; 1.54 with KASUMI-10; 3.34 with HAL-01; 2.94 with COG-LL-319h; 0.64 with TMD5. The “selective drug sensitivity score” value in the assay with MHH-CALL-2 is 3.64; with COG-LL-402h, 3.64; in the assay with MOLT-4, 3.34; in the assay with CCRF-CEM, 3.74; in the assay with SUP-B15, 4.24; in the assay on 697, 5.64. Moreover, the “selective drug sensitivity score” value in the assay with TANOUE stood at 2.24; in the assay with 380, 8.64; in the assay on CCRF-HSB2 it was 5.34; in the assay on COG-LL-317, 4.54; in the assay on NALM-16, 4.64; with KOPN-8, 2.84. Besides, the “selective drug sensitivity score” value in the assay on RCH-ACV is 3.74; with SEM cells it was 1.84.
